Measured values from article PMC9952391, “The Role of Acetyl Zingerone and Its Derivatives in Inhibiting UV-Induced, Incident, and Delayed Cyclobutane Pyrimidine Dimers” (Antioxidants, 2023).

Columns and labels:
[1] = tested on: incident CPDs (iCPDs) in pigmented C57BL/6 melanocytes (Mel-a); experiment: iCPD assessment by DNA ELISA after ssUV, Mel-a; format: cell-based, mouse
Source text: (§1) For UV exposures, we used a “SOL-UV6 ultraviolet solar simulator” from Newport irradiators. It is equipped with a Xenon arc lamp where the output is varied using the integrated variable attenuator aperture, which provides the ability to vary the output from 10% to 100% of the maximum available solar constants. The output spectrum is flat from 320 nm to 400 nm and no values are below 300 nm. This is abbreviated as “ssUV” for “solar-simulated UV” throughout the text. Various cell types seeded at ~50% confluency, were treated with the AZ and analogs at concentrations mentioned in the data figures for 24–h. Cells at ~80–90% confluency (untreated controls), were washed twice with PBS and exposed to 18 kJ/m^2 of ssUV in minimal amount of PBS (ex. 2 mL PBS in a 60 mm cell culture dish) without any dish lid in place. […] The ssUV apparatus was monitored almost daily using UV meters for any emissions below 300 nm. The dose was decided based upon the 80–90% cell survival post UV exposure. After exposure, one time point was collected immediately to assess iCPDs, whereas more dishes were incubated in cell culture medium, inside the cell culture incubator, for various time points to be collected post UV to assess dCPDs. For dCPD induction, it is important that the cell culture incubator is not opened for at least 30 min (the first time point post UV) to avoid possible interference from the CO2/O2 ratio, which will be altered upon opening the incubator doors. Cells were collected by scraping and washed once with PBS, which was followed by DNA isolation using a Quick DNA miniprep Kit (Cat. D3024, Zymo Research, Irvine, CA, USA). CPDs were assessed using our previously established DNA ELISA protocols. In brief, ELISA was performed using mouse monoclonal Anti-CPD (Cat. CAC-NM-DND-001, Clone TDM-2, CosmoBio, Inc., Carlsbad, CA, USA). Flat-bottom, 96-well plates (Cat. 2801, Thermo Scientific, Waltham, MA, USA) were coated overnight with 50 µL of protamine sulphate (0.005–0.05%, Cat. P3369, Sigma, St. Lois, MO, USA) in distilled water. After washing twice with water, heat-denatured DNA was plated in triplicates from each sample, into the protamine sulphate coated plate wells (50–100 ng/well in 50 µL PBS) and incubated overnight at 37 °C. The plates were washed 5 times with 200 µL of PBST (PBS containing 0.05% Tween-20 Cat. P7949, Sigma), and blocked with 2–4% FBS in PBST (blocking buffer) for 1 h at room temperature (RT). The plates were incubated with 100 µL of a 1:1000 dilution of anti-CPD antibody in blocking buffer, and incubated for 30 min at 37 °C, which was followed by 5 washes in PBST. Next, the plates were incubated with 100 µL of a 1:2000 dilution of Biotin-F(ab’)2 fragment of anti-mouse IgG(H+L) (Cat. B-2763, Life Technologies) in blocking buffer for 30 min at 37 °C. Detection was conducted using 100 µL of a 1:10,000 dilution of Streptavidin HRP (Cat. 434323, Life Technologies) in 2% FBS for 30 min at 37 °C, which was followed by 5 washes. The plates were washed once with citrate phosphate buffer (24.3 mM citric acid monohydrate, J.T. Baker Cat. 0110-01- and 51.4-mM sodium phosphate dibasic, Sigma Cat. S7907, pH 5.0). The o-phenylene diamine dihydrochloride (Cat. P8287-50TAB, Sigma) was used as a HRP substrate at 400 µg/mL in citrate phosphate buffer for 5–10 min. A measure of 50 µL of 2M H2SO4 was used to stop the reaction as soon as the color developed (5–10 min incubation in substrate), and OD was measured at 490 nm using a Synergy-2 multimode microplate reader (BioTek, Winooski, VT, USA).

melanocytes = tested on: melanocytes; parameters: method as in PMID 31538664; conditions: 25 µg/mL; cited from earlier work
[2] = tested on: Xpa, Xpc, Mitf, Xrcc1 expression in Mel-a; experiment: qPCR expression of NER pathway genes, Mel-a; format: cell-based, mouse
Description: (§2) Various cell types were collected 24-h post incubation with 200 µg/mL AZ and MBPD, with and without ssUV exposure. RNA was isolated using a Quick-RNA isolation kit (Cat. R1050, Zymo Research). The cDNA was prepared using a High-Capacity cDNA Reverse Transcription Kit (Cat. 4368814, ThermoFisher Scientific). The gene expression of XPA, XPC, and MITF genes was assessed using the following primers. β-actin was used as an internal control for normalizations and data analyses. F1-R1 and F2-R2 represents two primer pairs which were used in the qPCR experiments.

MMP-12 = tested on: MMP-12; parameters: method as in PMID 31465741; conditions: in vitro assays; cited from earlier work
[3] = tested on: delayed (dark) CPDs (dCPDs) in Mel-a cells; experiment: dCPD assessment by DNA ELISA post ssUV, Mel-a; format: cell-based, mouse; conditions: Mel-a, 50 µg/mL, 24–36 h preincubation, 0.5 to 4 h post ssUV, Figure 4C
Source text: (§3) For UV exposures, we used a “SOL-UV6 ultraviolet solar simulator” from Newport irradiators. It is equipped with a Xenon arc lamp where the output is varied using the integrated variable attenuator aperture, which provides the ability to vary the output from 10% to 100% of the maximum available solar constants. The output spectrum is flat from 320 nm to 400 nm and no values are below 300 nm. This is abbreviated as “ssUV” for “solar-simulated UV” throughout the text. Various cell types seeded at ~50% confluency, were treated with the AZ and analogs at concentrations mentioned in the data figures for 24–h. Cells at ~80–90% confluency (untreated controls), were washed twice with PBS and exposed to 18 kJ/m^2 of ssUV in minimal amount of PBS (ex. 2 mL PBS in a 60 mm cell culture dish) without any dish lid in place. […] The ssUV apparatus was monitored almost daily using UV meters for any emissions below 300 nm. The dose was decided based upon the 80–90% cell survival post UV exposure. After exposure, one time point was collected immediately to assess iCPDs, whereas more dishes were incubated in cell culture medium, inside the cell culture incubator, for various time points to be collected post UV to assess dCPDs. For dCPD induction, it is important that the cell culture incubator is not opened for at least 30 min (the first time point post UV) to avoid possible interference from the CO2/O2 ratio, which will be altered upon opening the incubator doors. Cells were collected by scraping and washed once with PBS, which was followed by DNA isolation using a Quick DNA miniprep Kit (Cat. D3024, Zymo Research, Irvine, CA, USA). CPDs were assessed using our previously established DNA ELISA protocols. In brief, ELISA was performed using mouse monoclonal Anti-CPD (Cat. CAC-NM-DND-001, Clone TDM-2, CosmoBio, Inc., Carlsbad, CA, USA). […] A measure of 50 µL of 2M H2SO4 was used to stop the reaction as soon as the color developed (5–10 min incubation in substrate), and OD was measured at 490 nm using a Synergy-2 multimode microplate reader (BioTek, Winooski, VT, USA).

[4] = tested on: incident CPDs (iCPDs) in HaCaT cells; experiment: iCPD assessment by DNA ELISA after ssUV, HaCaT; format: cell-based, human; conditions: 250 µg/mL, 24 h preincubation
Source text: as §3

[5] = tested on: nitrotyrosine / nitric oxide synthase (NOS) activity in Mel-a melanocytes; experiment: Immunofluorescence for nitrotyrosine (marker of NOS activity); format: cell-based, mouse; conditions: 50 µg/mL, 24–36 h
Description: Posttranslational modification nitrotyrosine was used as a marker of nitric oxide synthase (NOS) activity. Melanocytes were cultured on collagen-coated, glass-bottom dishes (cat. P35G-1.5-14-C, MatTek, Ashland, MA, USA). After various treatments, cells were fixed with 4% formaldehyde for 10 min at RT, washed with PBS, and permeabilized with 0.5% Triton-X in PBS for 10 min. After blocking for non-specific antibody binding using 5% goat serum (Cat. 16210064, ThermoFisher Scientific) and 1% globulin free BSA (Cat. 001-000-161, Jackson ImmunoResearch, West Grove, PA, USA) in 0.1% Triton-x in PBS (blocking buffer) for 2 h at room temperature, cells were incubated with 1:1000 dilution of anti-nitrotyrosine antibody (Cat. A-21285, ThermoFisher Scientific) overnight at 4 °C. Detection was conducted using Alexa Fluor 488 Goat Anti-rabbit IgG (Cat. A-11008, Life Technologies). Imaging was performed using a ZEISS Axio Observer microscope. Approximately 5–10 images per condition, with ~70–100 cells per image, were quantitated for nitrotyrosine fluorescence using ImageJ software.

[6] = tested on: incident CPDs (iCPDs) in NBHF cells; experiment: iCPD assessment by DNA ELISA after ssUV, NBHF; format: cell-based, human
Source text: as §1

[7] = tested on: human keratinocytes (HaCaT); experiment: Cell survival assay (Alamar blue), keratinocytes; format: cell-based; conditions: 24 h pre-incubation, Supplementary Figure S2
MMP-3 = tested on: MMP-3; parameters: method as in PMID 31465741; conditions: in vitro assays; cited from earlier work
[8] = tested on: Xpa, Xpc, Mitf, Xrcc1 expression in Mel-c; experiment: qPCR expression of NER pathway genes, Mel-c; format: cell-based, mouse; conditions: 24 h incubation
Description: as §2

MMP-1 = tested on: MMP-1; parameters: method as in PMID 31465741; conditions: in vitro assays; cited from earlier work
[9] = tested on: incident CPDs (iCPDs) in albino C57BL/6 melanocytes (Mel-c); experiment: iCPD assessment by DNA ELISA after ssUV, Mel-c; format: cell-based, mouse; conditions: various doses up to 1 mg/mL, 24 h, Figure 4B
Source text: as §3

melanin in Mel-a cells = experiment: Melanin amount in melanocytes cultured in varied tyrosine; format: cell-based; conditions: 50 µg/mL
Description: The amino acid tyrosine is essential for melanin synthesis, and it is added to the OptiMem medium at a proprietary concentration by ThermoFisher. Assuming this concentration to be “100% tyrosine”, we purchased the “custom-prepared, tyrosine-free” medium from ThermoFisher. This medium lacked tyrosine or its precursors, which include L-tyrosine, L-tyrosine-2Na-2H2O, L-tyrosine-Di-sodium salt, Hypoxanthine, and Sodium Hypoxanthine. Mel-a (pigmented mouse melanocyte) cells were cultured in regular cell culture medium containing 100% tyrosine, and in medium containing 20%, 4%, or 0% of the total tyrosine amount. This was achieved by diluting the regular OptiMem with the one containing no tyrosine (tyrosine-free, 0% tyrosine). […] Since the cells cultured in 0%-tyrosine medium lost their pigment over time (Figure 5) and the cell pellets were almost white or opaque in color, we assumed that the minimal amount of tyrosine from the horse serum used in the cell culture medium was not sufficient for melanin synthesis. To estimate the amount of melanin, 3 × 10^6–5 × 10^6 cells were lysed in 1M sodium hydroxide (NaOH) by heating them at 100 °C for 1–2 h, which was followed by a 10-min spin at 14,000 rpm at room temperature to remove any cell debris. Absorbance of the supernatant was recorded using the supernatant in a 96-well plate in triplicates from each sample, at 460–490 nm. Synthetic melanin (Cat. M0418, Sigma) was dissolved in methanol and used as a positive control to generate standard curves to estimate the melanin amount in cell lysates. The number of cells in each pellet was used as a normalization factor for each experimental condition. In a complementary experiment, cells were first bleached out of melanin completely by culturing them in tyrosine-free medium, followed by 100/20/4/0% tyrosine (not shown) treatment. This seemed to be cytotoxic, comparatively more so in 100% tyrosine, probably owing to the toxicity of the sudden rush of melanin derivatives and the oxidative stress generated during melanin synthesis.

Structure (SMILES): COc1cc(CC(C(C)=O)C(C)=O)ccc1O [AZ, 3-(4-Hydroxy-3-methoxybenzyl)-pentane-2,4-dione]
- Blockade of iCPDs ([1]; 50 µg/mL, 24-h preincubation, 18 kJ/m^2 ssUV): ~ 30%
- iCPD inhibition across doses ([1]; various doses up to 1 mg/mL, 24 h, Figure 4A): blocked iCPD generation in a dose-dependent manner
- Effect on iCPDs (melanocytes): without any significant effect
- Inhibition of delayed or dark CPDs (dCPDs) (melanocytes): inhibition
- NER pathway gene expression post UV exposure ([2]; 200 µg/ml, 24 h, then 18 kJ/m2 ssUV, various time points, relative to UV-induced upregulation): elevated slightly
- Gene expression of Xpa, Xpc and Mitf (NER pathway) ([2]; 24 h incubation, no UV, qPCR): upregulated
- Gene expression of Xrcc1 ([2]; 24 h incubation, qPCR): remained unaffected
- Inhibition of MMP-12 activity (MMP-12): inhibited
- Inhibition of delayed CPDs (dCPDs) [3]: inhibited dCPD formation almost completely
- Blockade of iCPDs [4]: ~ 50%
- Amount of nitrotyrosine (NOS activity marker) [5]: reduced the amount of nitrotyrosine
- Blockade of iCPDs ([6]; 1 mg/mL, 24 h preincubation): ~ 50%
- iCPD inhibition across doses ([6]; various doses, Figure 3C / Supplementary Figure S2B): minimal effect
- Cytotoxicity at 1000 µg/ml [7]: cytotoxic
- Inhibition of MMP-3 activity (MMP-3): inhibited
- Gene expression of Xrcc1 [8]: remained unaffected
- Gene expression of Xpa, Xpc and Mitf (NER pathway) ([8]; no UV): remained unaffected
- Inhibition of MMP-1 activity (MMP-1): inhibited
- iCPD inhibition across doses [9]: no significant impact
- Impact on melanin (melanin in Mel-a cells; different tyrosine variations): did not show any impact
- Cell death on longer incubation (melanin in Mel-a cells; 2–3 weeks incubation): 10–15%

Structure (SMILES): COc1ccc(CC(C(C)=O)C(C)=O)cc1OC [DMBPD, 3-(3,4-Dimethoxy-benzyl)-pentane-2,4-dione]
- Inhibition of iCPD formation ([6]; 50 µg/mL, 24 h preincubation, 18 kJ/m^2 ssUV, Figure 3B): inhibited iCPD formation to varying extents
